# In US8426342B2, “Method for weed control in lawn” (priority 2008, dated 2013):
# Key:
# Format in all cases: in vivo
# [1] = system: Poa annua; experiment: Effectivity testing against weed plants ex. 5.1, sprayable formulation on dormant Bermuda grass turf, Abbott %
# Excerpt: Each plot was divided by different pre-treatments 1 week before application of the trial treatments: • A) Pre-treatment with glyphosate-isopropylammonium allowing to evaluate in this section the pre-emergence effect against weeds. • B) No pre-treatment, present winter annual weeds are received a post-emergence application.
# 2005, applied on dormant turf in winter
# Effectivity was rated in percent (%) herbicidal effect compared with untreated control according to the method of Abbott according to the formula [(X−Y)/X]100 where X is the absolute level/scoring of the control plants, Y is the level/scoring of the treated plants. 100% efficacy means full control; 0% efficacy means no control of the weed; all ratings above 80% are usually acceptable.
# [2] = system: Trifolium repens; experiment: Effectivity testing against weed plants ex. 5.2, co-formulation/granules in tall fescue turf, early post for the weed, Abbott %; conditions: 50 g a.i./ha
# Excerpt: (§1) A co-formulation containing a mixture compounds no. […] Granules were applied with a shaker can.
# Turf grass species: Festuca arundinacea, variety (tall fescue grass)
# Weed species: Trifolium repens
# (§2) Location: Sports turf, North Carolina, USA
# (§3) Plot size: 1.4 m^2 and 3 replicates per treatment
# (§4) Application timing: 27 Mar. 2007, spring application, early post for the weed
# (§5) Effectivity was rated in percent (%) herbicidal effect compared with untreated control according to the method of Abbott mentioned above (see 5.1). 100% efficacy means full control; 0% efficacy means no control of the weed; all ratings above 80% are usually acceptable.
# [3] = system: Poa annua; experiment: Effectivity testing against weed plants ex. 5.3, in bermuda grass turf, Abbott %; conditions: 210 DAT
# Excerpt: as §1, §2, §3, §4, §5
# The application and evaluation were performed as described in example 5.2 with the following difference:
# Turf grass species: Cynodon dactylon, variety (bermuda grass)
# Weed species: Digitaria sanguinalis, Poa annua
smiles,measurement,setting,value
"Cc1ccc2c(c1)[C@H](Nc1nc(N)nc([C@@H](C)F)n1)[C@@H](C)C2 (stereo in doubt) [(A21)/(A22), indaziflam]","Herbicidal effect (%) on Poa annua, Post-emergence application without pre-treatment","[1]; 25 g a.i./ha, 123 DAT",27%
same,"Herbicidal effect (%) on Poa annua, Pre-emergence application after pre-treatment","[1]; 25 g a.i./ha, 123 DAT",96%
same,"Herbicidal effect (%) on Poa annua, Post-emergence application without pre-treatment","[1]; 25 g a.i./ha, 157 DAT",77%
same,"Herbicidal effect (%) on Poa annua, Pre-emergence application after pre-treatment","[1]; 25 g a.i./ha, 157 DAT",92%
same,"Herbicidal effect (%) on Poa annua, Post-emergence application without pre-treatment","[1]; 25 g a.i./ha, 187 DAT",98%
same,"Herbicidal effect (%) on Poa annua, Pre-emergence application after pre-treatment","[1]; 25 g a.i./ha, 187 DAT",96%
same,"Herbicidal effect (%) on Poa annua, Post-emergence application without pre-treatment","[1]; 50 g a.i./ha, 123 DAT",77%
same,"Herbicidal effect (%) on Poa annua, Pre-emergence application after pre-treatment","[1]; 50 g a.i./ha, 123 DAT",98%
same,"Herbicidal effect (%) on Poa annua, Post-emergence application without pre-treatment","[1]; 50 g a.i./ha, 157 DAT",95%
same,"Herbicidal effect (%) on Poa annua, Pre-emergence application after pre-treatment","[1]; 50 g a.i./ha, 157 DAT",100%
same,"Herbicidal effect (%) on Poa annua, Post-emergence application without pre-treatment","[1]; 50 g a.i./ha, 187 DAT",100%
same,"Herbicidal effect (%) on Poa annua, Pre-emergence application after pre-treatment","[1]; 50 g a.i./ha, 187 DAT",100%
same,"Herbicidal effect (%) on Poa annua, Post-emergence application without pre-treatment","[1]; 75 g a.i./ha, 123 DAT",98%
same,"Herbicidal effect (%) on Poa annua, Pre-emergence application after pre-treatment","[1]; 75 g a.i./ha, 123 DAT",100%
same,"Herbicidal effect (%) on Poa annua, Post-emergence application without pre-treatment","[1]; 75 g a.i./ha, 157 DAT",100%
same,"Herbicidal effect (%) on Poa annua, Pre-emergence application after pre-treatment","[1]; 75 g a.i./ha, 157 DAT",100%
same,"Herbicidal effect (%) on Poa annua, Post-emergence application without pre-treatment","[1]; 75 g a.i./ha, 187 DAT",100%
same,"Herbicidal effect (%) on Poa annua, Pre-emergence application after pre-treatment","[1]; 75 g a.i./ha, 187 DAT",100%
same,Herbicidal effect (%) on Trifolium repens,[2]; 30 DAT,60%
same,Herbicidal effect (%) on Trifolium repens,[2]; 381 DAT,90%
same,Herbicidal effect (%) on Poa annua,[3]; 12.5 g a.i./ha,70%
same,Herbicidal effect (%) on Poa annua,[3]; 25.0 g a.i./ha,97%
same,Herbicidal effect (%) on Poa annua,[3]; 50.0 g a.i./ha,100%
same,Herbicidal effect (%) on Poa annua,[3]; 100.0 g a.i./ha,100%
same,Herbicidal effect (%) on Poa annua,[3]; 200.0 g a.i./ha,100%
